The species named for series [1] is Sus scrofa. The experiment in a line: (§1) Compound was evaluated for the substrate activity for hog liver Folyl-polyglutamate synthase.
The target in a further series is T1, Dihydrofolate reductase (Homo sapiens, UniProt P00374).
T1 sequence (P00374 whole entry): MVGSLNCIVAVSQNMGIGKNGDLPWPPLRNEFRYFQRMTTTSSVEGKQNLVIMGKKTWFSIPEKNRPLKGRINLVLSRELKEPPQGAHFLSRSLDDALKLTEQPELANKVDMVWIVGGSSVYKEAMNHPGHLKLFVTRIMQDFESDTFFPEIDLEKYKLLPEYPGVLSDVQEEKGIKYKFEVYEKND
As to the kind of experiment: Inhibition of dihydrofolate reductase (DHFR) in WIL2 cells. In kind it is cell-based. The conditions noted are these: read-out: I50.

A short description of series [2]: Ratio of relative Vmax values to that of apparent Km values. In kind it is ADME.
Series [3] concerns the target Bifunctional purine biosynthesis protein ATIC (Homo sapiens, UniProt P31939). The experiment in a line: Inhibition of 5-aminoimidazole-4-carboxamide AICAR formyltransferase in MOLT-4 cells. In kind it is cell-based. To be noted: read-out: I50.
The next series concerns MCF7. As to the kind of experiment: Effective dose which is required to inhibit 50% of the cell growth of MCF-7 cells in culture. To be noted: Homo sapiens, read-out: ED50 (the source's name). The class given is functional.
In the next series the target is Thymidylate synthase (Homo sapiens, UniProt P04818). As to the kind of experiment: Inhibition of thymidylate synthase (TS) in human. To be noted: read-out: I50.
In the next series the test system is MOLT-4. As to the kind of experiment: Inhibition of the uptake of [3H]MTX influx into MOLT-4 cells. In kind it is functional, cell-based, Homo sapiens.
Series [4] has as its system Folyl-polyglutamate synthase. The description is as §1. The conditions noted are these: pig, hog liver folylpolyglutamate synthase; read-out: Km app. The class given is ADME, tissue-based, Sus scrofa.
Series [5] is filed under the species Sus scrofa. The experiment in a line: Compound was evaluated for the substrate activity for hog liver […] synthetase.

The text below walks through data of ChEMBL document CHEMBL1125239, “Synthesis and biological evaluation of 5-deazaisofolic acid, 5-deaza-5,6,7,8-tetrahydroisofolic acid, and their N9-substituted analogues” (J Med Chem, 1991).

The Km is the substrate concentration at which the rate is half of its maximum. For orientation: Ki means a measure of affinity in units of concentration, obtained from inhibition or displacement. Read a high Ki as lower affinity.

Thymidylate synthase, sequence (P04818 whole entry): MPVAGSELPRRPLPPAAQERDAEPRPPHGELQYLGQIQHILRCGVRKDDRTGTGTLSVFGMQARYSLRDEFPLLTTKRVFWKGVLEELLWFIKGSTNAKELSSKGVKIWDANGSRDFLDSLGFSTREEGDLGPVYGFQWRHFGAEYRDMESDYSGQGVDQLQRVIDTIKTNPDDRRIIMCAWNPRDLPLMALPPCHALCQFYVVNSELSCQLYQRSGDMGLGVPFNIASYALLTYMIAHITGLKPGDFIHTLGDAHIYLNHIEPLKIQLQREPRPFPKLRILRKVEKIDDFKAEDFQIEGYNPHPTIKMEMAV
Bifunctional purine biosynthesis protein ATIC, sequence (P31939 whole entry): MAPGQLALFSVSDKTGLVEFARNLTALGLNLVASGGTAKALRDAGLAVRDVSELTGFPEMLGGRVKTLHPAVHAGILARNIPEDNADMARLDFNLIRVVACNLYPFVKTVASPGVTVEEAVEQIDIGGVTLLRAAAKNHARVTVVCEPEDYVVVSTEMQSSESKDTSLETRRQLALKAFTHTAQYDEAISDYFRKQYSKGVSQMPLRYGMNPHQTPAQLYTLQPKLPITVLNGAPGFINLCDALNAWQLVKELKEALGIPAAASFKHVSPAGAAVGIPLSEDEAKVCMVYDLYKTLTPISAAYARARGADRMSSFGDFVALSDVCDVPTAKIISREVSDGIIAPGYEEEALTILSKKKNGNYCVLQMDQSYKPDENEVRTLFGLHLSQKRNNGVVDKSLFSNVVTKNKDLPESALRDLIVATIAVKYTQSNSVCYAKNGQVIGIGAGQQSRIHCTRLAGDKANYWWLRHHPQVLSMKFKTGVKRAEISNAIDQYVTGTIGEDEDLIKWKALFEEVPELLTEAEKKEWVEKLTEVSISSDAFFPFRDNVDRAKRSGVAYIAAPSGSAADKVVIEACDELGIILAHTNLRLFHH

For `CN(Cc1ccc(C(=O)NC(CCC(=O)O)C(=O)O)cc1)c1cnc2nc(N)nc(O)c2c1` (configuration not stated), in the series listed under Sus scrofa [1], the Km was found to be 55.3 µM. For the same molecule, the values for the IC50 (at Dihydrofolate reductase; in series [3]; at Thymidylate synthase) were 0.25 µM, 141 µM and 0.48 µM, respectively. Besides, the Ratio in series [2] was determined as 0.85. Besides, the EC50 in the series on MCF7 came to 35 µM.

For `Nc1nc(N)c(CCCNc2ccc(C(=O)N[C@@H](CCC(=O)O)C(=O)O)cc2)c(O)n1`, the IC50 at Dihydrofolate reductase and on Thymidylate synthase was over 100 µM each time. Besides, the Ratio in series [2] is recorded as 14.9. Moreover, the inhibition constant (Ki) with MOLT-4 is 1 µM. Moreover, the Michaelis-Menten constant (Km) in series [4] was determined as 6.7 µM. Also, in the series on MCF7, the EC50 amounted to 0.037 µM.

`Nc1nc(O)c2c(n1)NCC(CCc1ccc(C(=O)NC(CCC(=O)O)C(=O)O)cc1)C2` (configuration not stated): the Michaelis constant (Km) in the series filed under Sus scrofa [1] was 17.5 µM. Besides, the IC50 at Dihydrofolate reductase was over 100 µM; at Thymidylate synthase, over 1000 µM. The same molecule came in with a Ki in the series on MOLT-4 of 1.5 µM. Besides, in the series on MCF7, the EC50 came out at 0.018 µM.

`Nc1nc(O)c2cc(N(C=O)Cc3ccc(C(=O)NC(CCC(=O)O)C(=O)O)cc3)cnc2n1` (configuration not stated): the Michaelis-Menten constant (Km) in the series filed under Sus scrofa [1] is over 100 µM. Also, the IC50 is 1.95 µM on Dihydrofolate reductase, 49.9 µM in series [3] and 28.8 µM at Thymidylate synthase. The EC50 in the series with MCF7 was over 100 µM.

With `Nc1nc(O)c2c(n1)NCC(NCc1ccc(C(=O)NC(CCC(=O)O)C(=O)O)cc1)C2` (configuration not stated), in the series listed under Sus scrofa [1], the Michaelis-Menten constant (Km) is 67.4 µM. Further, the results for the IC50 (at Dihydrofolate reductase; in series [3]; at Thymidylate synthase) were over 1000 µM, over 100 µM and over 100 µM, respectively. In addition, the Ratio in series [2] is listed as 1. Also, in the series with MOLT-4, the Ki was found to be 17.5 µM. Also, the EC50 with MCF7 was 1.2 µM.

Consider `Nc1nc(O)c2cc(NCc3ccc(C(=O)NC(CCC(=O)O)C(=O)O)cc3)cnc2n1` (configuration not stated), for which the Km in the series filed under Sus scrofa [1] is 133 µM. For the same molecule, the IC50 at Dihydrofolate reductase worked out at 0.21 µM; in [3], 62.8 µM; on Thymidylate synthase, 7.1 µM. The molecule also displayed an inhibition constant Ki with MOLT-4 of over 30 µM. Moreover, the EC50 in the series with MCF7 is over 100 µM.

`CN(Cc1ccc(C(=O)NC(CCC(=O)O)C(=O)O)cc1)C1CNc2nc(N)nc(O)c2C1` (configuration not stated): the IC50 is over 1000 µM at Dihydrofolate reductase, over 100 µM in series [3] and over 100 µM on Thymidylate synthase. Besides, the Ratio in series [2] came to 7. For the same molecule, the inhibition constant (Ki) in the series on MOLT-4 came to 22 µM. Moreover, the Michaelis-Menten constant (Km) in the series listed under Sus scrofa [5] amounted to 9.4 µM. Besides, the EC50 in the series with MCF7 was determined as 4.5 µM.
